Columns and labels:
[1] = system: LOX human melanoma cell adhesion to human collagen I; test: LOX cell adhesion to collagen I; assay type: cell-based; conditions: read-out: Collagen I IC50
Description: (§1) Adhesion assays were run essentially as described previously (Pai et al., J. Biomed. Res. 2: 53, 1992). 96-well plates were coated with human fibronectin (140 ng/well), human vitronectin (75 ng/well), human collagen I (100 ng/well), human collagen IV (100 ng/well), human fibrinogen (1 μg/well), murine laminin (600 ng/well), or polylysine, and incubated overnight in a humidified 37° C. incubator. Excess fibronectin or other substrate was then removed and 0.2 ml of 2 mg/ml bovine serum albumin (BSA)in Dulbecco's phosphate-buffered saline (DPBS) was added to each well, incubated for 2 hours at 37° C., and removed. LOX human melanoma cells, M27 murine lung carcinoma cells or B16F10 mouse melanoma cells were detached from tissue culture flasks with RPMI medium containing 0.2M urea and 10 mM EDTA, and 0.18 ml of cells were added to each well to a final cell concentration of 1×10^5 cells/well. For inhibition studies 20 μl of 10× compound was added to the wells prior to cell addition. Cells were allowed to adhere for 1 hour at 37° C. The wells were then gently washed twice with 0.2 ml DPBS. The fluorescent dye calcein AM (Molecular Probes, Eugene Oreg.) in DPBS (0.1 ml of 1 μM) was added to each well, and the plates were incubated for 1 hour at room temperature. Adherent cells were quantitated by reading the fluorescence on a Cytofluor 2300 fluorescent plate reader (Millipore) at 485 nm excitation and 530 nm emission.

[2] = system: LOX human melanoma cell adhesion to polylysine; test: LOX melanoma cell adhesion to polylysine; assay type: cell-based; conditions: read-out: Poly Lys IC50
[3] = system: LOX human melanoma cell adhesion to human fibrinogen; test: LOX cell adhesion to fibrinogen; assay type: cell-based; conditions: read-out: Fibrinogen IC50
Description: as §1

[4] = system: LOX human melanoma cell adhesion to human vitronectin; test: LOX cell adhesion to vitronectin; assay type: cell-based; conditions: read-out: Vitronectin IC50
Description: as §1

[5] = MTT cytotoxicity assay; assay type: cell-based; conditions: human, lox melanoma cells; for CC50 at 1 h: read-out: MTT 1 Hr LD50
Description: LOX human melanoma cells, in RPMI medium with 2 mg/ml BSA and 25 mM HEPES, pH 7.4, were seeded at 4×10^4 cells/well in 96-well microtiter plates and grown overnight in a humidified 37° C. incubator. On the following day, the medium was aspirated and wells were washed once with 0.1 ml of DPBS. Compounds (0.1 ml) in DPBS were added to wells in quadruplicate at appropriate concentrations. The cells were then incubated with test compound for 1 hour at 37° C. Wells were aspirated and washed 2× with 0.1 ml DPBS. MTT [3-(4,5-Dimethylthiazol-2-yl)-2,5-diphenyltetrazolium bromide] (0.1 ml of 1 mg/ml solution in PBS from Sigma Chemical Co.) was added to each well and incubated for 2 hour at 37° C. MTT was aspirated and 0.1 ml of 50% N,N-dimethylformamide with 20% sodium dodecyl sulfate was added to each well. Plates were shaken for 10 minutes on a Titer-Plate shaker (Labline) at room temperature. Optical density was read at 570 nm with a plate-reading spectrophotometer (Dynatech MR5000).

[6] = system: LOX human melanoma cell adhesion to human collagen IV; test: LOX cell adhesion to collagen IV; assay type: cell-based; conditions: read-out: Collagen IV IC50
Description: as §1

[7] = Calcein cytotoxicity assay; assay type: cell-based; conditions: human, lox melanoma cells; for CC50 at 2 h / CC50 at 6 h: calcein AM assay; for CC50 at 2 h: read-out: 2 Hr Tox LD50; for CC50 at 6 h: read-out: 6 Hr Tox LD50
[8] = system: PDGF receptor; test: PDGF receptor binding assay
[9] = system: TBZ-induced ptosis; test: Effects on tetrabenazine (TBZ)-induced ptosis in mice; assay type: in vivo, mouse; conditions: Mus musculus, po
From the text: Clinically active antidepressant drugs are known to block TBZ-induced ptosis in mice (See Psychosomatic Medicine, Nodine and Moyer, Eds. Lea and Febiger, Philadelphia, 1962, pp 683-90, which is hereby incorporated by reference). Activity in this test is used to predict anti-depressant activity in man.
The procedure for the TBZ-Induced Ptosis Test in Mice is set forth in Psychosomatic Medicine, Nodine and Moyer, Eds. Lea and Febiger, which is hereby incorporated by reference and in PCT/US91/06705, filed 20 Sep. 1991, which is mentioned above.
The results for this test are given below as ED50 's in the units of mg/kg.
TBZ refers to the test of effects on tetrabenazine induced ptosis in mice, p.o.;

[10] = system: PDGF-BB-stimulated mitogenesis of bovine smooth muscle cells; test: Smooth muscle cell mitogenesis test; assay type: cell-based
Description: The procedure for the Smooth Muscle Cell Mitogenesis test is given just below. The fibronectin adhesion inhibitor, compound B, was tested for inhibitory effects on PDGF (Platelet Derived Growth Factor) BB-stimulated mitogenesis of bovine smooth muscle cells. Cells were exposed to PDGF with and without compound B in 24-well plates for 16 hours.

[11] = system: B16-F10 murine melanoma metastasis; test: In vivo experimental metastasis; set-up: species or system mouse (C57/black6); conditions: 150 mpk i.p.
Description: C57/black6 female mice (6-7 weeks old) were randomized before any treatment into groups of 5 mice per treatment. Compounds of the invention were prepared as a fine suspension in 25% β-cyclodextran and administered i.p. in a volume of 0.2 ml per animal. Two hours after drug (or vehicle) injection, 0.2 ml of DPBS containing 1×10^5 B-16 F10 murine melanoma cells were injected i.v. into the tail vein. After 14 days, animals were sacrificed and lungs were removed. Metastatic lung colonies were counted by visual inspection.
*Pretreatment Time is the time between i.p. drug injection and i.v. tumor

Cc1ccc(C2=C3CC4CCC(C3c3ccccc32)N4C)cc1 (stereo not shown) [J]
IC50 [1]: 4.5 µM | IC50 [2]: 53.2 µM | IC50 [3]: 13.5 µM | IC50 [4]: 12.8 µM | CC50 at 1 h [5]: 54.6 µM | IC50 [6]: 10 µM | CC50 at 2 h ([7]; 2 hours): 58.4 µM | CC50 at 6 h ([7]; 6 hours): 30.6 µM

COc1ccc(C2=C3CC4CCC(N4)C3c3ccccc32)cc1 (stereo not shown) [Compound B]
IC50 [1]: 6.7 µM | IC50 [2]: 22.3 µM | IC50 [3]: 9.9 µM | inhibition of PDGF binding [8]: not to inhibit PDGF binding directly | IC50 [4]: 16.8 µM | selectivity ratio at 1 h ([5]; MTT, read-out: selectivity for blockade of fibronectin adhesion vs. cytotoxicity (MTT 1 hour)): 19 | CC50 at 1 h [5]: 97.6 µM | ED50 [9]: 12 mg/kg | 3H-Thymidine Incorporation (dpm/1000 ± S.E.M.) ([10]; 0.1 μM + 1 ng/ml PDGF-BB): 406.8 ± 30.2 dpm/1000 | 3H-Thymidine Incorporation (dpm/1000 ± S.E.M.) ([10]; 0.3 μM + 1 ng/ml PDGF-BB): 347.7 ± 9.8 dpm/1000 | 3H-Thymidine Incorporation (dpm/1000 ± S.E.M.) ([10]; 1 μM + 1 ng/ml PDGF-BB): 156.3 ± 7.2 dpm/1000 | 3H-Thymidine Incorporation (dpm/1000 ± S.E.M.) ([10]; 3 μM + 1 ng/ml PDGF-BB): 17.0 ± 1.9 dpm/1000 | cell detachment ([10]; 10 μM): caused cells to detach from the plate | 3H-Thymidine Incorporation (dpm/1000 ± S.E.M.) ([10]; 10 μM + 1 ng/ml PDGF-BB): 7.3 ± 5.3 dpm/1000 | inhibition at 0.1 µM ([10]; Bos taurus, 0.1 μM + 1 ng/ml PDGF-BB): -2.7% | inhibition at 0.3 µM ([10]; Bos taurus, 0.3 μM + 1 ng/ml PDGF-BB): 18.5% | inhibition at 1 µM ([10]; Bos taurus, 1 μM + 1 ng/ml PDGF-BB): 87.1% | inhibition at 3 µM ([10]; Bos taurus, 3 μM + 1 ng/ml PDGF-BB): 137% | inhibition at 10 µM ([10]; Bos taurus, 10 μM + 1 ng/ml PDGF-BB): 140% | IC50 ([10]; Bos taurus, 16 hours, read-out: inhibition of PDGF-stimulated mitogenesis IC50): 0.52 µM | IC50 [6]: 16.2 µM | CC50 at 2 h ([7]; 2 hours): 74.5 µM | selectivity ratio at 2 h ([7]; 2 hours, calcein AM, read-out: selectivity for blockade of fibronectin adhesion vs. cytotoxicity (2 Hour Tox)): 15 | CC50 at 6 h ([7]; 6 hours): 24.6 µM | selectivity ratio at 6 h ([7]; 6 hours, calcein AM, read-out: selectivity for blockade of invasion vs. cytotoxicity (6 Hour Tox)): > 61 | inhibition of in vivo metastasis relative to vehicle control ([11]; 2 hours before i.v. injection of melanoma): 73% | % Inhibition of lung metastasis ([11]; pretreatment time 30 min): 55.7% | Number of Lung Melanoma Colonies ([11]; pretreatment time 30 min): 35.2 ± 13.9 | % Inhibition of lung metastasis ([11]; pretreatment time 120 min): 72.5% | Number of Lung Melanoma Colonies ([11]; pretreatment time 120 min): 21.8 ± 2.0

CN1C2CCC1C1C(=C(c3ccc(Cl)cc3)c3ccccc31)C2 (stereo not shown) [C]
IC50 [1]: 4 µM | IC50 [2]: 248 µM | IC50 [3]: 6.2 µM | IC50 [4]: 5.9 µM | CC50 at 1 h [5]: 95.1 µM | IC50 [6]: 9.9 µM | CC50 at 2 h ([7]; 2 hours): 85.3 µM | CC50 at 6 h ([7]; 6 hours): 22.5 µM
